Laboratory results: patent publication US11969490B2, “Hair conditioning composition with antimicrobial system” (The Procter & Gamble Company, priority 2020, dated 2024)

assay: Rheology Test Method (shear stress at 950 s^−1 via flow curve); type: physicochemical
Experimental: 2. Rheology Test Method Rheology is used to evaluate and characterise product samples. The two key rheology methods identified are mentioned below: • Shear Stress at 950 s^−1 via flow curve: This is the method to ramp up shear rate logarithmically from 0.1 to 1000 s^−1 in 1 min using a cone & plate geometry, and to read the shear stress value 6 (Pa) at shear rate 950 s^−1. • Delta in Rheology %: This is the percentage difference in rheology measurement following the formula below: Delta in Rheology %=((a−b)/b)×100% • where a is the post added product and b is the no post added product. If rheology reduction is more than 50%, it would indicate significant interaction with chassis and incompatible.

| Compound | rheology reduction / compatibility with formulation, in words |
| --- | --- |
| Pentylene Glycol | no significant rheology reduction |
| CCCCCCCC(=O)OCC(O)CO (stereo not shown) [Glyceryl caprylate] | no significant rheology reduction |
| O=C([O-])c1ccccc1.[Na+] [Sodium benzoate, reference compound] | significant rheology reduction |
| CC(=O)c1ccc(O)cc1 [4-Hydroxyacetophenone] | no significant rheology reduction |
